Assay [1] concerns smooth muscle of the vas deferens. The note with it: cited from earlier work.
The next assay has as its system blood platelets. The note with it: in vitro; cited from earlier work.
For assay [2], the system named is human platelet aggregation. To be noted: result in words; cited from earlier work.
The next assay concerns tracheal smooth muscle. To be noted: in vitro; cited from earlier work.
Assay [3] has as its system female reproductive system. To be noted: cited from earlier work.
The test system of the next assay is gastric secretion. The assay is described as follows: Test B: Inhibition of Rodent Gastric Secretion (pylorus-ligated rat). The format is in vivo. To be noted: subcutaneous, 2 x 1.5 mg/kg (total 3.0 mg/kg), 4 hours after pyloric ligation. Here is the method: A procedure based on that described by Lipmann (J. Pharm. Pharmacol., 21:335 [ 1968]) was used to assess the influence of test compounds on gastric secretion. Rats of one sex weighing 150 to 200 g were randomly divided into groups of six animals each and fasted for 48 hours previously to the experiments, water being available adlibitum. The animals were anesthetized with ether, the abdomen was opened through a midline incision and the pylorus was ligated. Test compounds were diluted from stock solution so as to administer a dose of 1.5 mg/kg in a volume equivalent to 1 ml/kg. Subcutaneous injections were applied immediately after surgery and again 2 hours later, so that a total dose of 3.0 mg/kg was administered. Dilutions were made with phosphate buffer (pH 7.38) as recommended by Lee et al. (Prostaglandins 3:29 [ 1973]), in order to insure adequate stability of drugs at the subcutaneous depot. Each compound was tested in one group of rats; an additional control group received only the vehicle.
Four hours after pyloric ligation the animals were killed with ether, the cardias ligated and the stomachs removed. The volume of gastric secretion was measured and the contents centrifuged at 5000 rpm for 10 minutes. Total acid in the supernatant was titrated against a 0.1 N sodium hydroxide solution and the amount expressed in mEq.
Volume and total acid values of the treated group were compared with those of the controls by the "T" test. Antisecretory activity was scored according to the following scale: […]

Assay [4] concerns human platelet aggregation. The assay is described as follows: Test A: Inhibition of Human Platelet Aggregation. The format is cell-based. To be noted: human platelet rich plasma, in vitro, collagen-induced, 37° C, 15 minutes. Here is the method:
The ability of test compounds to inhibit platelet aggreagation was determined by a modification of the turbidometric technique of Born (Nature, 194: 927 [1962]). Blood was collected from human volunteer who had not ingested aspirin or aspirin-containing products within the preceding two weeks in heparinized containers and was allowed to settle for one (1) hour. The platelet rich plasma (prp) supernates were collected and cooled. Siliconized glassware was used throughout.
In a representative assay 1.9 ml of PRP and 0.2 ml of test compound at the appropriate concentrations (0.001 to 100 mcgm), or 0.2 ml of distilled water (control procedure) were placed in sample cuvettes. The cuvettes were placed in a 37° C incubation block for 15 minutes, and then in a spectrophotometer linked to a strip chart recorder. After 30-60 seconds, 0.2 ml of a solution, prepared by diluting a calf-skin collagen solution 1:9 with Tyrodes' Solution, was added to each cuvette. Platelet aggregation was evidenced by a decrease in optical density.
An ED50 value was then determined graphically.

A further assay has as its system blood pressure. Description: Test D: Decrease in Normal Feline Blood Pressure and Heart Rate (anesthetized cat). To be noted: intravenous, 0.01 to 10.0 mcg/kg, judged only on hypotension. It counts as in vivo. On the procedure:
The acute effects of test compounds on blood pressure and heart rate were determined in cats of either sex anesthetized with a mixture of pentobarbital sodium (35 mg/kg, i.v.) and barbital sodium (100 mg/kg, i.v.). Cannulas were placed in the trachea to allow adequate spontaneous ventilation, in a femoral artery for blood pressure recording with a strain gage transducer, and in a saphenous vein for drug administration. Heart rate was recorded by means of a cardiotachometer driven by the R wave of the electrocardiogram. After a period of 10 minutes of stable recordings of blood pressure and heart rate, the test compound was administered intravenously at doses increasing from 0.01 to 10.0 mcg/kg, spaced one log and injected at 10 minutes intervals. All doses were injected in a volume of 0.1 ml/kg. Modifications of blood pressure and heart rate induced by the test compound were expressed both in absolute units (mmHg and beats/minutes) and as percent of values recorded immediately before administration of each dose. Biphasic responses were tabulated in the order in which they occur. The direction of the observed changes was also noted (+ for increases and - for decreases).
Activity of compounds in this test was judged only on the basis of the degree of hypotension observed. Thus, the ED50 mmHg (dose decreasing blood pressure by 50 mmHg) was calculated graphically and the compound scored according to the following scale: […]

Another assay has as its system femoral blood flow. The assay is described as follows: Test C: Increase in Canidae Femoral Blood Flow. It counts as in vivo. The note with it: anesthetized dog, intraarterial, 0.001 to 10 mcg. Here is the method: The peripheral vasodilator or constrictor effects of test compounds were determined in mongrel dogs of either sex, weighing between 10 and 20 kg anesthestized intravenously with 35 mg/kg of sodium pentobarbital. An external iliac artery was dissected immediately above the femoral arch for a length of approximately 5 cm and a previously calibrated, non-connulating electromagnetic flowmeter sensor with a lumen between 2.5 and 3.5 mm was placed snugly around the vessel. Cannulas were placed in a branch of the artery arising distally to the location of the flowmeter sensor for intraarterial drug administrations, in the contralateral femoral artery for systemic blood pressure recordings and in the trachea for artificial respiration with room air. Femoral blood flow and systemic blood pressure were continuously recorded with an electromagnetic flowmeter and pressure tranducer, respectively.
After an adequate control period, test compounds were injected intraarterially at one log-spaced doses ranging from 0.001 to 10 mcg., in a volume of 0.5 ml and at 5 to 10 minute intervals. Maximum changes in bloodflow, as well as any variations in blood pressure, were tabulated for each dose in absolute values (ml/min. and mmHg). The calculations were made taking as control values those existing immediately before administration of each dose. The direction of the observed change (plus for increase and minus for decrease) was also noted. The dose changing bloodflow by 100 ml/min (ED100 ml/min) was calculated graphically and was used for scoring activity as follows: […]

On to `CCCCC[C@H](O)/C=C/[C@H]1[C@H](O)CC(=O)[C@@H]1CCCCCCC(=O)O` [PGE1, prostaglandin E1], for which the “contraction of the smooth muscle of the vas deferens” value in assay [1] is “contracts the smooth muscle of the vas deferens”. Besides, in the assay with blood platelets, the thrombogenesis result was “inhibits thrombogenesis in vitro”. For the same molecule, the “inhibition of platelet aggregation by natural prostaglandins” value in assay [2] was “displays a similar activity”. In addition, the “effect on tracheal smooth muscle” value in the assay with tracheal smooth muscle was “relax”.

Turning to `CCCCC[C@H](O)/C=C/[C@H]1[C@H](O)CC(=O)[C@@H]1C/C=C\CCCC(=O)O` [PGE2], the “effect on tracheal smooth muscle” value in the assay with tracheal smooth muscle is “relax”.

With `CCCCC[C@H](O)/C=C/[C@@H]1[C@@H](C/C=C\CCCC(=O)O)[C@@H](O)C[C@H]1O` [PGF2α], in the assay on tracheal smooth muscle, the “effect on tracheal smooth muscle” value is on record as “contracts the smooth muscle”. The spontaneous abortions result in assay [3] (early pregnancy) is recorded as “induces spontaneous abortions in early pregnancy”. Further, the “effect on fertility / gestation” value in [3] (female reproductive system) is on record as “contragestational effects”.

Regarding `COC(=O)CCCCCC[C@H]1C(=O)C=C[C@@H]1/C=C/[C@H](O)CCCCC1CCC2CCC1C2` (stereo partly drawn) [TR-4119, methyl 7-{5-oxo-2R-[3R-hydroxy-7-(bicyclo[3.2.1]oct-2-yl)-1E-hepentyl]cyclopent-3-en-1R-yl}heptanoate], the “Activity Value Test B (% decrease in acidity)” value in the assay with gastric secretion is on record as 0 (<26). Also, the “Activity Value Test A (ED50, inhibition of platelet aggregation)” value in assay [4] was 1 (>1.0). Besides, the “Activity Value Test D (ED50 mmHg, dose decreasing blood pressure by 50 mmHg)” value in the assay with blood pressure is 0 (>10.0). Besides, in the assay on femoral blood flow, the “Activity Value Test C (ED100 ml/min, dose changing bloodflow by 100 ml/min)” value (“Activity Value Test C” below) is on record as 0 (>10.0).

Regarding `COC(=O)CCCCCC[C@H]1C(=O)C[C@@H](O)[C@@H]1/C=C/[C@H](O)CCCCC1CCCC2CCCCC21` (stereo partly drawn) [TR-4166], in the assay with gastric secretion, the “Activity Value Test B (% decrease in acidity)” value is listed as 0 (<26). Also, the “Activity Value Test A (ED50, inhibition of platelet aggregation)” value in assay [4] is 1 (>1.0). For the same molecule, the “Activity Value Test D (ED50 mmHg, dose decreasing blood pressure by 50 mmHg)” value in the assay on blood pressure was 0 (>10.0). Moreover, in the assay on femoral blood flow, the “Activity Value Test C” value is 0 (>10.0).

In the case of `COC(=O)CCCCCC[C@H]1C(=O)C[C@@H](O)[C@@H]1/C=C/[C@@H](O)CCCCC1CCCC2CCCCC21` (stereo partly drawn) [TR-4172], the “Activity Value Test B (% decrease in acidity)” value in the assay with gastric secretion was 0 (<26). Further, the “Activity Value Test A (ED50, inhibition of platelet aggregation)” value in assay [4] is 1 (>1.0). In addition, the “Activity Value Test D (ED50 mmHg, dose decreasing blood pressure by 50 mmHg)” value in the assay on blood pressure is on record as 0 (>10.0). The “Activity Value Test C” value with femoral blood flow was 0 (>10.0).

Regarding “dl-7-{5-oxo-2R[3R-hydroxy-2-(bicyclo[3.2.0]hept-3-yl)-1E-propenyl]cyclopent- [TR-4101]”, the “Activity Value Test B (% decrease in acidity)” value in the assay on gastric secretion is reported as 1 (26-50, not significant). For the same molecule, the “Activity Value Test A (ED50, inhibition of platelet aggregation)” value in assay [4] is listed as 1 (>1.0). In addition, the “Activity Value Test D (ED50 mmHg, dose decreasing blood pressure by 50 mmHg)” value in the assay with blood pressure is 1 (1.01 - 10.0). In addition, the “Activity Value Test C” value with femoral blood flow is 3 (0.01 - 0.1).

The values are drawn from patent US4115453A (Miles Laboratories, Inc., priority 1977, dated 1978).
